We go through 2 compounds from patent US20090131515A1, “Combination of antidiabetic drugs” (SIGMA-TAU INDUSTRIE FARMACEUTICHE RIUNITE S.p.A., priority 2003, published 2009).

SMILES strings stand for the structures. Values joined by “and” are separate entries in the source; they are usually repeats but may differ in a detail not shown here. Identical values can stand only once. Like-named read-outs stand apart in the source and are kept apart here.

For data set [1], the system named is db/db mice. The data set can be described thus: Blood glucose of db/db mice in postabsorption conditions, ST1326 and metformin alone or in combination. The settings on record: male db/db mice, ST1326 30 mg/kg and metformin 200 mg/kg alone or in combination, twice daily for 16 days, 6 hours after last treatment, mean ± s.e. The format is in vivo, mouse. The text has this:
(§1) The B6. V-Lep ob/ob, C57BL/KsJ db/db and C57BL/6 mice used in the experiments were supplied by Jackson Lab. (via Charles River).
(§2) Blood samples were taken from ob/ob and db/db mice in standard environmental conditions, on a normal diet (4 RF21, Mucedola) and from C57BL/6J mice on a high-fat diet (D-12331, Research Diets) for 3 months, in postabsorption conditions (fasting from 8.30 a.m. to 4.30 p.m.) from the caudal vein, with the aid of a Jelco 22G catheter (Johnson and Johnson).
(§3) The mice were treated orally twice daily (at 8.30 a.m. and 6.30 p.m.) with ST1326 at the dose of 30 mg/kg and with metformin at the dose of 200 mg/kg, alone or in combination.
(§4) Blood samples were taken on various different days after administration of the products and in different nutritional conditions for the serum glucose determinations, OGTT (Oral Glucose Tolerance Test) and IST (Insulin Suppression Test: Fujita et al., Diabetes 32: 804-810, 1983; Meglasson et al., J. Pharm. Exp. Therap. 266: 1454-1462, 1993; Luo et al., J. Pharm. Exp. Therap. 288: 529-534, 1999).

A further data set deals with type 2 diabetes patients. The settings on record: cited from earlier work.
Data set [2] deals with db/db mice. The experiment in a line: Oral Glucose Tolerance Test (OGTT) in db/db mice. The format is in vivo, mouse. The following applies: male db/db mice, fasting overnight; for Blood glucose in the OGTT, 0 min: ST1326 30 mg/kg and metformin 200 mg/kg alone or in combination, twice daily for 37 days, 15 hours after last treatment; for Blood glucose in the OGTT, 30 min / Blood glucose in the OGTT, 60 min / Blood glucose in the OGTT, 120 min / Blood glucose in the OGTT, AUC: same treatment for 37 days; for Blood glucose in the OGTT, 30 min: 30 min after glucose loading; for Blood glucose in the OGTT, 60 min: 60 min after glucose loading; for Blood glucose in the OGTT, 120 min: 120 min after glucose loading; for Blood glucose in the OGTT, AUC: AUC 0-120 min.
Description: as §1, §2, §3, §4
(§5) In the OGTT, blood samples were taken 0, 30, 60 and 120 minutes after glucose loading (3 g/kg).

Another data set concerns KKAy mouse. The settings on record: cited from earlier work.
For data set [3], the system named is C57BL/6J mice on a high-fat diet. The experiment in a line: Blood glucose of C57BL/6J mice on a high-fat diet, postabsorption conditions. The format is in vivo, mouse. The settings on record: male C57BL/6J mice on high-fat diet, ST1326 30 mg/kg and metformin 200 mg/kg alone or in combination, twice daily for 15 days, 6 hours after last treatment, mean ± s.e.
Description: (§6) An example is the C57BL/6 mouse, which, as a result of exposure to a high-fat diet, develops not only insulin resistance but also mild hyperglycaemia (Surwit et al., 37: 1163-1167, 1988; Luo et al., Metabolism 47: 663-668,1998).
as §1, §2, §3, §4

The subject of data set [4] is C57BL/6 mice on a high-fat diet. The data set can be described thus: Oral Glucose Tolerance Test (OGTT) in C57BL/6 mice on a high-fat diet. The format is in vivo, mouse. The settings on record: male C57BL/6 mice on high-fat diet; for Blood glucose in the OGTT, 0 min: ST1326 30 mg/kg and metformin 200 mg/kg alone or in combination, twice daily for 35 days, postabsorption, 6 hours after last treatment; for Blood glucose in the OGTT, 30 min / Blood glucose in the OGTT, 60 min / Blood glucose in the OGTT, 120 min / Blood glucose in the OGTT, AUC: same treatment for 35 days; for Blood glucose in the OGTT, 30 min: 30 min after glucose loading; for Blood glucose in the OGTT, 60 min: 60 min after glucose loading; for Blood glucose in the OGTT, 120 min: 120 min after glucose loading; for Blood glucose in the OGTT, AUC: AUC 0-120 min.
Description: as §6, §1, §2, §3, §4, §5

In data set [5] the test system is ob/ob mice. The experiment in a line: Insulin Suppression Test (IST), blood glucose of ob/ob mice. The settings on record: for Blood glucose levels in the IST: male ob/ob mice, postabsorption, 8 hours after last treatment, mean ± s.e.; for Reduction of hyperglycaemia in the IST: ob/ob mouse. The format is in vivo, mouse.
Description: as §1, §2, §3, §4
In the IST, blood samples were taken 60 min after subcutaneous loading of glucose (3 g/kg), insulin (Humulin R., Lilly 2 U/kg) and somatostatin (0.5 mg/kg).

Data set [6] has as its system ob/ob mice. The data set can be described thus: Blood glucose of ob/ob mice in feeding conditions. The format is in vivo, mouse. The following applies: male ob/ob mice, ST1326 30 mg/kg and metformin 200 mg/kg alone or in combination, twice daily for 11 days, 15 hours after last treatment, mean ± s.e.
Description: as §1, §2, §3, §4

The test system of data set [7] is db/db mice. The data set can be described thus: Serum glucose of db/db mice treated with ST1326 for 45 days, postabsorption conditions. The format is in vivo, mouse. The following applies: for Lowering serum glucose: db/db mice; for Serum glucose levels: male db/db mice, postabsorption, 8 hours after last treatment, mean ± s.e.
Description: as §1, §2

Where [8] appears, read: ST1326 30 mg/kg and metformin 200 mg/kg alone or in combination, twice daily for 18 days.

Consider `CN(C)C(=N)N=C(N)N` [METFORMIN, metformin], for which the Blood glucose levels came to 337.8 ± 33.1 mg/dL with db/db mice [1] and 146.1 ± 9.2 mg/dL in data set [3]. For the same compound, the Reduction of hyperglycaemia was 25% with type 2 diabetes patients (in combination with sulphonylureas); 20% and 13-37% in the data set on type 2 diabetes patients (monotherapy after the failure of diet and physical exercise); “ineffective” in the data set on KKAy mouse (200 mg/kg/day); 50% with KKAy mouse (900 mg/kg/day). In addition, in the data set on type 2 diabetes patients (patients on metformin), the “Incidence of diarrhoea, nausea and gastrointestinal disorders” value is “approximately 20%”. Moreover, the figures for the “Blood glucose in the OGTT, 0 min” value (in the data set with db/db mice [2]; in data set [4]) were 195.5 ± 21.5 mg/dL and 141.1 ± 11.4 mg/dL, respectively. Also, the “Blood glucose in the OGTT, 30 min” value in the data set with db/db mice [2] was determined as 530.9 ± 34.6 mg/dL; in [4] it was 241.2 ± 18.9 mg/dL. The “Blood glucose in the OGTT, 60 min” value in the data set with db/db mice [2] was found to be 456.8 ± 52.4 mg/dL; in data set [4], 212.3 ± 5.0 mg/dL. Also, the “Blood glucose in the OGTT, 120 min” value in the data set on db/db mice [2] is 344.4 ± 40.9 mg/dL; in data set [4], 186.2 ± 15.1 mg/dL. Moreover, the Blood glucose in the OGTT, AUC turned out to be 49700 ± 4720 mg·min/dL in the data set on db/db mice [2] and 24500 ± 1180 mg·min/dL in data set [4]. The figures for the “Blood glucose levels in the IST” value in the data set on ob/ob mice [5] (setting [8]) and in the data set on ob/ob mice [5] (oral metformin 300 mg/kg twice daily for 8 days) were 433.7 ± 34.8 mg/dL and 412.1 ± 3.5 □ mg/dl, respectively. Besides, the results for the “Reduction of hyperglycaemia in the IST” value with ob/ob mice [5] (200 mg/kg/day) and with ob/ob mice [5] (600 mg/kg/day) were “ineffective” and 22%, respectively.

With `CCCCCCCCCCCCCCNC(=O)N[C@H](CC(=O)[O-])C[N+](C)(C)C` [ST1326, R-4-trimethylammonio-3-(tetradecylcarbamoyl)-amino-butyrate], the Blood glucose levels stood at 370.7 ± 30.0 mg/dL in the data set on db/db mice [1], 167.3 ± 4.7 mg/dL in [3] and 394.8 ± 25.7 mg/dL in the data set on ob/ob mice [6]. Also, the “Blood glucose in the OGTT, 0 min” value in the data set on db/db mice [2] is 175.3 ± 25.6 mg/dL; in [4] it was 156.0 ± 7.8 mg/dL. In addition, the “Blood glucose in the OGTT, 30 min” value was found to be 557.2 ± 30.6 mg/dL in the data set with db/db mice [2] and 236.3 ± 11.2 mg/dL in data set [4]. Also, the “Blood glucose in the OGTT, 60 min” value with db/db mice [2] came out at 498.3 ± 23.5 mg/dL; in data set [4], 207.0 ± 9.9 mg/dL. Moreover, the entries for the “Blood glucose in the OGTT, 120 min” value (in the data set on db/db mice [2]; in [4]) were 284.6 ± 20.8 mg/dL and 212.9 ± 8.6 mg/dL, respectively. For the same compound, the Blood glucose in the OGTT, AUC in the data set with db/db mice [2] came to 50300 ± 2430 mg·min/dL; in data set [4] it was 25100 ± 652 mg·min/dL. Also, the “Blood glucose levels in the IST” value in the data set with ob/ob mice [5] (setting [8]) is 524.2 ± 56.2 mg/dL. Also, the Lowering serum glucose entry with db/db mice [7] (dose of 40 mg/kg/day) is “inactive”; in the data set with db/db mice [7] (dose of 100 mg/kg/day), “effective”. Besides, the Serum glucose levels is 562 ± 40 mg/dL in the data set on db/db mice [7] (oral 20 mg/kg twice daily for 45 days) and 350 ± 48 Δ mg/dl in the data set with db/db mice [7] (oral 50 mg/kg twice daily for 45 days).
